From patent US20230416751A1, “MATERIALS AND METHODS FOR TREATING CORNEAL DYSFUNCTION” (UNIVERSITY OF MIAMI, priority 2020, published 2023)

Experiments:
caspase-1 [1] = test: siRNA inflammasome inhibitor in vitro assay: caspase-1 SimpleStep ELISA in HCEC-B4G12 cells; type: cell-based, human; conditions: HCEC-B4G12, YVAD 30 ng/ml, TNFα and INFγ, 72 hours; vs positive control cells treated only with TNFα and INFγ
Description: HCEC-B4G12 (Human Corneal Endothelial Cell Line) cells were obtained from Leibniz Institute DSMZ and maintained in Endothelial SFM supplemented with FGF 10 ng/ml in a humidified incubator under an atmosphere of 5% CO2/95% air at 37° C. For transfection, cells were seeded in 12 well culture plates until cultures reached 95-100% confluence. The cells were then transfected with 1 μM ASC siRNAs using siPORT NeoFX Transfection Agent (Invitrogen) following the manufacturer protocol.
Transfection efficiency was estimated by assessing the amount of Block-it Alexa Fluor green fluorescent oligonucleotide (Invitrogen) present inside cells in control cultures 24 and 72 hours after transfection. […] Following the 72 hours treated endothelial cells were placed on 150 μL of lysis buffer with protease inhibitor cocktail (Sigma), and caspase-1 levels were measured by SimpleStep ELISA™ kit (Abcam; Cambridge, UK) according to the manufacturer's instructions. Caspase-1 protein levels were determined by measuring the fluorescence intensity using a microplate reader (SpectraMax iD3, Molecular Device, San Jose, CA, USA) with excitation and emission wavelengths set at 485 and 535 nm, respectively. […]
Caspase-1 levels were analyzed by SimpleStep ELISA after 72 hours of treatment with either YVAD (30 ng/ml) or ASC siRNA (1 μM) transfection, both sets of cells underwent inflammation induction with TNFα and INFγ. […]

human CEC [2] = test: Intracellular ROS detection (DCF-DA) in corneal endothelial grafts exposed to TNF-α and IFN-γ; type: cell-based; conditions: Ac-YVAD-cmk 30 ng/ml, 48 hours, p<0.001
Description: (§1) Endothelial grafts were isolated from corneal tissue grafts stored in Optisol GS (Bausch & Lomb; Rochester, New York, USA) and transferred to 24-well plates in DMEM/F12 medium (Gibco, Invitrogen Thermo Fisher, Carlsbad, CA, USA) supplemented with 5% fetal bovine serum (Gibco, Invitrogen Thermo Fisher, Carlsbad, CA, USA) and incubated at 37° C. for 48 hours to stabilize the cells following hypothermic storage. Medium was replaced and endothelial grafts were treated with TNF-α (100 ng/ml, R&D Systems, Minneapolis, MN, USA) and IFN-γ (100 ng/ml, Systems, Minneapolis, MN, USA)^34 and were incubated at 37° C. for 48 hours. Caspase-1 inhibitor, Ac-YVAD-cmk (30 ng/ml, InvivoGen, San Diego, CA, USA) was used to inhibit the inflammasome in CEC.
Measurement of intracellular ROS levels was performed using a 2,7-dichlorofluorescein diacetate (DCF-DA) Cellular Reactive Oxygen Species Detection Assay Kit (Abcam, Cambridge, UK) according to the manufacturer's instructions as described in^36. Endothelial grafts were incubated with 10 μM DCF-DA at 37° C. for 45 min. Then, ROS level was determined by measuring the fluorescence intensity using a microplate reader (SpectraMax iD3, Molecular Device, San Jose, CA, USA) with excitation and emission wavelengths set at 485 and 535 nm, respectively. Tert-butyl hydrogen peroxide (TBHP) was used as the positive control. […]

GSDM-D = GSDM-D immunofluorescence in corneal endothelial grafts exposed to TNF-α and IFN-γ; type: cell-based, human; conditions: Ac-YVAD-cmk, TNF-α 100 ng/ml + IFN-γ 100 ng/ml, 48 hours
Description: as §1
(§2) Endothelial grafts were fixed with 4% paraformaldehyde for 10 minutes at room temperature and washed with PBS. For immunofluorescence staining, samples were permeabilized with 0.3% Triton X-100 in PBS for 15 minutes and blocked with Image-iT FX signal enhancer (Invitrogen ThermoFisher Scientific; Carlsbad, CA, USA) for 30 minutes at room temperature. Isotype-matched nonspecific IgG antibodies were used as controls. […] Stained samples were examined using an inverted fluorescence microscope (BZ-X800 Analyzer, KEYENCE, Osaka, Japan). Images were analyzed using BZ-X-Analyzer software (KEYENCE, Osaka, Japan).

IL-1β = IL-1β ELISA in human corneal endothelial grafts exposed to TNF-α and IFN-γ; type: cell-based; conditions: Ac-YVAD-cmk 30 ng/ml, TNF-α 100 ng/ml + IFN-γ 100 ng/ml, 48 hours; vs exposed grafts
Description: as §1
(§3) To study the expression of inflammasome signaling proteins in endothelial grafts, cells were treated with TNF-α and IFN-γ for 48 hours. Treated endothelial grafts were placed on […] of lysis buffer with protease inhibitor cocktail (Sigma) and Caspase-1 and […] levels were measure by SimpleStep ELISA™ kit (Abcam; Cambridge, UK) according to the manufacturer's instructions. Caspase-1 and IL-1β protein levels were determined by measuring the fluorescence intensity using a microplate reader (SpectraMax iD3, Molecular Device, San Jose, CA, USA) with excitation and emission wavelengths set at 485 and 535 nm, respectively. […]

human CEC [3] = test: Lactate dehydrogenase (LDH) release assay in corneal endothelial grafts exposed to TNF-α and IFN-γ; type: cell-based; conditions: supernatant of grafts exposed to TNF-α and IFN-γ, Ac-YVAD-cmk 30 ng/ml, 48 hours; p<0.05
Description: as §1
Cytotoxicity of CEC after TNF-α, IFN-γ treatment was assessed by LDH release assay. LDH release assay was measure using a CytoTox 96® Non-Radioactive Cytotoxicity Assay kit (Promega, Madison, WI, USA) performed according to the manufacturer's instructions as described in^35. The absorbance was measured using a microplate reader (SpectraMax iD3, Molecular Device, San Jose, CA, USA) with excitation and emission wavelengths set at 490 nm.

caspase-1 [4] = test: Caspase-1 immunofluorescence in corneal endothelial grafts exposed to TNF-α and IFN-γ; type: cell-based, human; conditions: Ac-YVAD-cmk 30 ng/ml, TNF-α 100 ng/ml + IFN-γ 100 ng/ml, 48 hours
Description: as §1, §2

caspase-1 [5] = test: Caspase-1 ELISA in human corneal endothelial grafts exposed to TNF-α and IFN-γ; type: cell-based; conditions: Ac-YVAD-cmk 30 ng/ml, TNF-α 100 ng/ml + IFN-γ 100 ng/ml, 48 hours; vs exposed and control non-exposed grafts, p<0.0001
Description: as §1, §3

caspase-1 expression (immunofluorescence) (caspase-1 [4]): lower expression of caspase-1 | caspase-1 levels (ELISA) (caspase-1 [5]): significantly lower levels of caspase-1
Substance: Ac-YVAD-cmk
decrease of caspase-1 levels (caspase-1 [1]): about 41% | ROS levels (human CEC [2]): significantly downregulated | intracellular (cytoplasmic) immunoreactivity of GSDM-D (GSDM-D): inhibited | IL-1β levels (ELISA) (IL-1β): did not show significantly lower levels of IL-1β | LDH levels (LDH release, cell death) (human CEC [3]): significantly downregulated
